Reference: patent US9890117B2, “Benzamide compounds and related methods of use” (Northwestern University, priority 2012, dated 2018)

Tests used:
SIRT2 = molecular target: T1, SIRT2 (Homo sapiens, UniProt Q8IXJ6); test: Fluor-de-Lys biochemical sirtuin deacetylation assay, SIRT2; conditions: 10 μM
T1 construct: recombinant active enzymes SIRT1, SIRT2, and the catalytically active fragment of SIRT3
T1 sequence (Q8IXJ6 1-389): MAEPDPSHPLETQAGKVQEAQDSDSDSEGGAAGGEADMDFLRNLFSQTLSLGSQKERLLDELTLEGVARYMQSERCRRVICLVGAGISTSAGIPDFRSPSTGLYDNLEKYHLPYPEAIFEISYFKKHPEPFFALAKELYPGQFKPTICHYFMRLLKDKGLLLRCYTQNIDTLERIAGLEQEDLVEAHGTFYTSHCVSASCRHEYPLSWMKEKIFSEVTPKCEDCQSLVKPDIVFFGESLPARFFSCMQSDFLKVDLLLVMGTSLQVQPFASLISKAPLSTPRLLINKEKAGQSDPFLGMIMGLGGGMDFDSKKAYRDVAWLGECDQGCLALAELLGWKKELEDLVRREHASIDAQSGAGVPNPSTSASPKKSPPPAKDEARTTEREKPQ

Row | SMILES | inhibition at 10 µM (SIRT2) [%] | melting point
1 | CSc1ccc(CSc2cccc(C(=O)Nc3ccc(Cl)cn3)c2)cc1 [Compound 211b, N-(5-chloropyridin-2-yl)-3-((4-(methylthio)benzyl)thio)benzamide] | 42 | 159 to 161 °C
2 | COc1ccc(CSc2cccc(C(=O)Nc3ccc(C#N)cc3)c2)cc1 [Compound 211c, N-(4-cyanophenyl)-3-((4-methoxybenzyl)thio)benzamide] | 69 | 167 to 169 °C
3 | COc1ccc(CSc2cccc(C(=O)Nc3ccc(C#N)cn3)c2)cc1 [Compound 211d, N-(5-cyanopyridin-2-yl)-3-((4-methoxybenzyl)thio)benzamide] | 46 | 163 to 164 °C
4 | N#Cc1ccc(NC(=O)c2ccnc(SCc3ccc(F)cc3)c2)cc1 [Compound 211e, N-(4-cyanophenyl)-2-((4-fluorobenzyl)thio)isonicotinamide] | 74 | 160 to 162 °C
5 | COc1ccc(CSc2cc(C(=O)Nc3ccc(C#N)cc3)ccn2)cc1 [Compound 211f, N-(4-cyanophenyl)-2-((4-methoxybenzyl)thio)isonicotinamide] | 68 | 201 to 203 °C
6 | N#Cc1ccc(NC(=O)c2cccc(SCc3ccc(F)cc3)c2)cc1 [Compound 211g, N-(4-cyanophenyl)-3-((4-fluorobenzyl)thio)benzamide] | 59 | 148 to 150 °C
7 | N#Cc1ccc(NC(=O)c2cccc(OCc3cccc(F)c3F)c2)cc1 [Compound 216Aa, N-(4-cyanophenyl)-3-((2,3-difluorobenzyl)oxy)benzamide] | 56 | 149 to 150 °C
8 | CC(=O)c1ccc(C(C)Oc2cncc(C(=O)Nc3ccc(C#N)cc3)c2)cc1 (stereo not shown) [Compound 216Ab, 5-(1-(4-acetylphenyl)ethoxy)-N-(4-cyanophenyl)nicotinamide] | 84 | 181 to 183 °C
9 | CC(=O)c1ccc(C(C)Oc2cccc(C(=O)Nc3ccc(C#N)cc3)c2)cc1 (stereo not shown) [Compound 216Ac, 3-(1-(4-acetylphenyl)ethoxy)-N-(4-cyanophenyl)benzamide] | 93 | 79 to 81 °C
10 | N#Cc1ccc(NC(=O)c2cccc(OCc3cccc(F)c3)c2)cc1 [Compound 216Ad, N-(4-cyanophenyl)-3-((3-fluorobenzyl)oxy)benzamide] | 58 | 142 to 143 °C
11 | N#Cc1ccc(NC(=O)c2cccc(OCc3cc(F)cc(F)c3)c2)cc1 [Compound 216Ae, N-(4-cyanophenyl)-3-((3,5-difluorobenzyl)oxy)benzamide] | 57 | 185 to 187 °C
12 | CC(O)c1ccc(C(C)Oc2cncc(C(=O)Nc3ccc(C#N)cc3)c2)cc1 (stereo not shown) [Compound 216Af, N-(4-cyanophenyl)-5-(1-(4-(1-hydroxyethyl)phenyl)ethoxy)nicotinamide] | 12 | 179 to 181 °C
13 | CSc1ccc(COc2cccc(C(=O)Nc3ccc(C#N)cc3)c2)cc1 [Compound 216a, N-(4-cyanophenyl)-3-((4-(methylthio)benzyl)oxy)benzamide] | 60 | 147 to 148 °C
14 | CSc1ccc(COc2cccc(C(=O)Nc3ccc(C#N)cn3)c2)cc1 [Compound 216b, N-(5-cyanopyridin-2-yl)-3-((4-(methylthio)benzyl)oxy)benzamide] | 22 | 146 to 147 °C
15 | COc1ccc(COc2cccc(C(=O)Nc3ccc(C#N)cc3)c2)cc1 [Compound 216c, N-(4-cyanophenyl)-3-((4-methoxybenzyl)oxy)benzamide] | 40 | 147 to 148 °C
16 | COc1ccc(COc2cccc(C(=O)Nc3ccc(C#N)cn3)c2)cc1 [Compound 216d, N-(5-cyanopyridin-2-yl)-3-((4-methoxybenzyl)oxy)benzamide] | 8 | 132 to 134 °C
17 | C[S+]([O-])c1ccc(COc2cccc(C(=O)Nc3ccc(C#N)cc3)c2)cc1 (stereo not shown) [Compound 216e] | 32 | 174 to 175 °C
18 | COc1ccc(COc2cccc(C(=O)Nc3ccc(S(C)(=O)=O)cc3)c2)cc1 [Compound 216f, 3-((4-methoxybenzyl)oxy)-N-(4-(methylsulfonyl)phenyl)benzamide] | 36 | 173 to 174 °C
19 | N#Cc1ccc(NC(=O)c2cccc(OCc3ccc(F)cc3)c2)cc1 [Compound 216g, N-(4-cyanophenyl)-3-((4-fluorobenzyl)oxy)benzamide] | 64 | 149 to 150 °C
20 | COc1ccc(COc2cccc(C(=O)Nc3ccc([S+](C)[O-])cc3)c2)cc1 (stereo not shown) [Compound 216h, 3-((4-methoxybenzyl)oxy)-N-(4-(methylsulfinyl)phenyl)benzamide] | 50 | 135 to 136 °C
21 | N#Cc1ccc(NC(=O)c2cccc(OCc3ccc(F)cc3)c2)nc1 [Compound 216i, N-(5-cyanopyridin-2-yl)-3-((4-fluorobenzyl)oxy)benzamide] | 15 | 170 to 171 °C
22 | N#Cc1ccc(NC(=O)c2cccc(OCc3ccc(C(F)(F)F)cc3)c2)cc1 [Compound 216j, N-(4-cyanophenyl)-3-((4-(trifluoromethyl)benzyl)oxy)benzamide] | 67 | 167 to 168 °C
23 | CS(=O)(=O)c1ccc(COc2cccc(C(=O)Nc3ccc(C#N)cc3)c2)cc1 [Compound 216k, N-(4-cyanophenyl)-3-((4-(methylsulfonyl)benzyl)oxy)benzamide] | 39 | 209 to 210 °C
24 | N#Cc1ccc(NC(=O)c2cccc(OCc3ccc(OC(F)(F)F)cc3)c2)cc1 [Compound 216m, N-(4-cyanophenyl)-3-((4-(trifluoromethoxy)benzyl)oxy)benzamide] | 56 | 138 to 139 °C
25 | N#Cc1ccc(NC(=O)c2cccc(OCc3ccc(Cl)cn3)c2)cc1 [Compound 216n, 3-((5-chloropyridin-2-yl)methoxy)-N-(4-cyanophenyl)benzamide] | 34 | 168 to 169 °C
26 | N#Cc1ccc(COc2cccc(C(=O)Nc3ccc(C#N)cc3)c2)cc1 [Compound 216q, 3-((4-cyanobenzyl)oxy)-N-(4-cyanophenyl)benzamide] | 56 | 205 to 207 °C
27 | C[C@@H](Oc1cncc(C(=O)Nc2ccc(C#N)cc2)c1)c1ccc(F)cc1 [Compound 216r, (R)—N-(4-cyanophenyl)-5-(1-(4-fluorophenyl)ethoxy)nicotinamide] | 69 | 151 to 152 °C
28 | C[C@H](Oc1cncc(C(=O)Nc2ccc(C#N)cc2)c1)c1ccc(F)cc1 [Compound 216s, (S)—N-(4-cyanophenyl)-5-(1-(4-fluorophenyl)ethoxy)nicotinamide] | 27 | 152 to 153 °C
29 | N#Cc1ccc(COc2cncc(C(=O)Nc3ccc(C#N)cc3)c2)cc1 [Compound 216t, 5-((4-cyanobenzyl)oxy)-N-(4-cyanophenyl)nicotinamide] | 0 | 266 to 268 °C (dec.)
